The text below walks through data of patent publication US10039806B2, “Methods and compositions for treating antiprogestin-resistant cancers” (Fundación Sales, priority 2011, dated 2018).

The structures appear in SMILES notation. Like-named read-outs stand apart in the source and are kept apart here.

One data set addresses GR (Homo sapiens, UniProt P04150). The note with it: cited from earlier work.
The test system of data set [1] is HI-responsive tumors. Put plainly: MPA breast cancer model, HI-responsive tumors in vivo. Details: species or system mouse.
The target in data set [2] is T1, PR (Homo sapiens, UniProt P06401).
T1 sequence (P06401 1-933): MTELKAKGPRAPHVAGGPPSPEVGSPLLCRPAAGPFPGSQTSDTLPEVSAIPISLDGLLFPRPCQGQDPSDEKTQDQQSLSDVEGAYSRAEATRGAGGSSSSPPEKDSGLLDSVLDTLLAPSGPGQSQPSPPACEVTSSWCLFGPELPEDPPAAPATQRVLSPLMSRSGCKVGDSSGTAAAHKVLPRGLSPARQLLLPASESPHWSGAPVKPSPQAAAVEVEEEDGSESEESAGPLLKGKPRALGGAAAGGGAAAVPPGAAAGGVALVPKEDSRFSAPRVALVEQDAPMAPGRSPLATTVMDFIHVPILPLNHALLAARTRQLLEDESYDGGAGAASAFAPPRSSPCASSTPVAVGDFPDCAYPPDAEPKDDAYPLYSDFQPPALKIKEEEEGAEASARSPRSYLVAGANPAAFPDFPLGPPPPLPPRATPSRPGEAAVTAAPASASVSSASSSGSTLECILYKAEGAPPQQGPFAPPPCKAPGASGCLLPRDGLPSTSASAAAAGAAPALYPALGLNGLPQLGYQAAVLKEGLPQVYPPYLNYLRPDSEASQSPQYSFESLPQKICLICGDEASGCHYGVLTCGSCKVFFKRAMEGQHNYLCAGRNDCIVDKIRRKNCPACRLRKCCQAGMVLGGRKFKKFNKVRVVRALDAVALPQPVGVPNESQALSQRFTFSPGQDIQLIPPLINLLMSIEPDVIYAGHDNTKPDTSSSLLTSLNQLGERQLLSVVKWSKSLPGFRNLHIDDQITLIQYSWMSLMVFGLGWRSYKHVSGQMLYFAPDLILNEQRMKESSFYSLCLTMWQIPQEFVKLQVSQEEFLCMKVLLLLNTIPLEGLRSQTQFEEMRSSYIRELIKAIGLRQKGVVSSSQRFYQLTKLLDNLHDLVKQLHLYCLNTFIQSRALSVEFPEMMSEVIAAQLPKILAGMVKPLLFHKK
To be noted: cited from earlier work.

The next data set deals with T2, glucocorticoid receptor (Homo sapiens, UniProt P04150).
T2 sequence (P04150 1-777): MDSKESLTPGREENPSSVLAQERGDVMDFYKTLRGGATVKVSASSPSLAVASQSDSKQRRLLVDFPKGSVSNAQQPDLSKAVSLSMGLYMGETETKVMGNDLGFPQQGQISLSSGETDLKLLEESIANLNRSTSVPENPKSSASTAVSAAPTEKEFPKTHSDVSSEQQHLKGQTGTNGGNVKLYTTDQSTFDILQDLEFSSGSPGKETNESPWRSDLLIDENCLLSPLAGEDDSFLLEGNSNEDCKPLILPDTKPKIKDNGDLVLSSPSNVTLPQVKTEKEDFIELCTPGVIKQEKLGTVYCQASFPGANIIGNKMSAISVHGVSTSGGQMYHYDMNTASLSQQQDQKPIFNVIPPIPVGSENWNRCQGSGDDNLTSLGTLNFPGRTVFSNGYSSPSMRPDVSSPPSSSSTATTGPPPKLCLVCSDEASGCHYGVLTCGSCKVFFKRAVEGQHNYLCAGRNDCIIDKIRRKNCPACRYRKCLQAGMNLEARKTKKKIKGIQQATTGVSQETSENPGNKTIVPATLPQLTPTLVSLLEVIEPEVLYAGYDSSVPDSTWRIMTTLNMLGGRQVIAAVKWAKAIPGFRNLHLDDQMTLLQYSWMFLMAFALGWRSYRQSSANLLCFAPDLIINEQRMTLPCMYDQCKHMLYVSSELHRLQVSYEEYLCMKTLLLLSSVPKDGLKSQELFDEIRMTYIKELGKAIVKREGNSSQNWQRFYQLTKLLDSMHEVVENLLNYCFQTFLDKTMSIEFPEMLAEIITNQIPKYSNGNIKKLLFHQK
The note with it: cited from earlier work.

The next data set has as its system T61 human tumors. The note with it: in vivo; cited from earlier work.
In a further data set the test system is T47D cells. To be noted: cited from earlier work.
The test system of another data set is breast cancer. To be noted: cited from earlier work.
In data set [3] the test system is MXT mouse model of breast cancer. The note with it: cited from earlier work.
For data set [4], the system named is HI-responsive tumors. To be noted: cited from earlier work; for therapeutic effects: murine mammary carcinomas with increased PR-A/PR-B.
Data set [5] relates to primary cultures of responsive tumors. The note with it: 1-100 nM; cited from earlier work.
A further data set deals with MCF-7 xenografts. To be noted: MIF 50 mg/kg/day, ONA 30 mg/kg/day, 17 days; cited from earlier work.
The subject of data set [6] is DMBA-induced mammary tumors. The note with it: cited from earlier work.
In data set [7] the target is T1, PR. The note with it: cited from earlier work. This is another data set of the same source.
The test system of the next data set is MCF-7 cells. To be noted: 10 nM; 10% steroid-deficient human serum; cited from earlier work.
In data set [8] the test system is epithelial cells from breast cancer samples. Description: Primary cultures from breast cancer samples: cell number or Ki67. The format is cell-based, human. To be noted: 10^-8 M, one week; 3 out of 8 cases; p<0.05. The text has this:
The samples were obtained at surgery from patients diagnosed with breast cancer at the […]. de Martinez Hospital from General Pacheco and at the […] Hospital of Buenos Aires after signing the informed consent (n=70; median age 55 year). Protocols were approved by the Institutional Ethical Review Board. Whenever possible, one piece of the sample was kept in dry ice immediately after surgery and another piece was kept in culture medium and transported to IBYME. Tumor samples were processed by mechanical and enzymatic degradation and epithelial cells were purified by differential sedimentation techniques (7). The epithelial cells were cultured with DMEM/F12 medium plus 10% fetal calf serum (FCS). Once the cultures were overcrowded, they were subcultured and equal numbers of cells were seeded in 24 well plates. […] OH-Tamoxifen was also used as a control. After one week of treatment, the cells were trypsinized and the total number of cells in each well was counted or alternatively, they were fixed to evaluate the Ki67 (proliferation marker) expression by IHC. In several cases in which there were carcinoma associated fibroblasts intermingled with the epithelial cells, a double staining of Ki67 and cytokeratin (CK) was performed to consider the proliferating cells among the total number of epithelial cells (CK+). An inhibitory index was calculated for each tumor.

The subject of a further data set is C4-HIR cells. Description: (3H)-thymidine uptake, primary cultures of purified epithelial cells. The format is cell-based, mouse. To be noted: 48 h, with MPA; P<0.001. Here is the method:
(§1) Epithelial cells and carcinoma-associated fibroblasts were separated by differential sedimentation and plated with 10% FCS. Carcinoma-associated fibroblasts were allowed to attach for 0.5 h and the epithelial cells for 24-48 h. The medium was replaced by fresh medium with 10% FCS; thereafter, it was changed every 2-3 days.
(§2) (3H)-thymidine-uptake was used as an indirect method to evaluate cell proliferation. In brief, cells were seeded into 96-well microplates. After attachment (24 h), the cells were incubated for 24 h with 1% steroid-stripped FCS and then for 48 h with the experimental solutions to be tested in 1% chFCS. Fifty percent of the medium was replaced with fresh medium every 24 h. The cells were incubated with 0.4 μCi of 3H-thymidine (specific activity: 20 Ci/mmol) for 24 h, trypsinized, and harvested in a cell harvester. In experiments in which 5azadC was used, the experiments were carried out using proliferating cells (presence of 10% FCS) to guarantee the effect of the demethylating agent. Three different experiments were made using octuplicates, and the means and standard deviations of one representative experiment of the other three are shown. The results are expressed as the proliferation index (cpm […] experimental group/cpm control; mean±SEM).

The next data set relates to C4-HI cells. The description is as above. To be noted: 48 h, with MPA; P<0.001. It is filed as cell-based, mouse. The protocol: as §1, §2

`C/C=C\[C@]1(O)CC[C@H]2[C@@H]3CCC4=CC(=O)CCC4=C3[C@@H](c3ccc(N(C)C)cc3)C[C@@]21C` [Aglepristone]: the GR affinity entry on GR was “lower affinity”. Besides, the tumor regression entry with HI-responsive tumors [1] (3 mg/week, unpublished data) is reported as “regress”. In addition, the PR affinity result at PR [2] is on record as “high affinity”.
As for `CC(=O)O[C@]1(C(C)=O)CC[C@H]2[C@@H]3CCC4=CC(=O)CCC4=C3[C@@H](c3ccc(N(C)C)cc3)C[C@@]21C` [CDB-2914], at glucocorticoid receptor, the antiglucocorticoid activity result is given as “less than that of MIF”.
`COCC(=O)[C@@]1(OC(C)=O)CC[C@H]2[C@@H]3CCC4=CC(=O)CCC4=C3[C@@H](c3ccc(N(C)C)cc3)C[C@@]21C` [CDB-4124]: at glucocorticoid receptor, the antiglucocorticoid activity entry is recorded as “less than that of MIF”.
`C[C@]12CC[C@@H]3c4ccc(O)cc4CC[C@H]3[C@@H]1CC[C@@H]2O` [E2, 17-β-Estradiol]: the tumor regression entry in the data set with HI-responsive tumors [1] (0.5-5 mg) is “regress”. Besides, in the data set with T61 human tumors, the tumor growth entry is “induces tumor regression”.
For `CN(C)c1ccc([C@H]2C[C@]3(C)[C@@H](CC[C@]3(O)CCCO)[C@@H]3CCC4=CC(=O)CCC4=C32)cc1` [ONA, onapristone], in the data set with T47D cells (5% FCS), the “effects on T47D cells” value is “inhibitory effects”. In the data set with breast cancer (19 patients), the partial response was 56% and the stable disease was 11%. In the data set on breast cancer (human, in vivo), the reason for discontinuation result is listed as “hepatotoxicity” and the “reason for stopping the trial” value was “liver function test abnormalities”. The tumor growth entry with T61 human tumors is reported as “has no effect”. The “inhibition of cell proliferation compared with MIF” value in data set [3] (10 mg/kg/day) is “better than MIF at inhibiting cell proliferation”. Moreover, the “tumor take and stimulatory effects of E2 and MPA” value in [3] (1 or 10 mg/kg/day from one day post-transplantation) is “inhibited both tumor take and the stimulatory effects of E2 and MPA”. In addition, in the data set on HI-responsive tumors [4] (daily doses of 10 mg/kg), the tumor regression result is “regress”. In the data set on HI-responsive tumors [4] (mouse, in vivo), the tumor regression result is recorded as “induced tumor regression”. The therapeutic effects result with HI-responsive tumors [4] is recorded as “excellent therapeutic effects”. Moreover, the “MPA-induced or FGF2-induced cell proliferation” value in data set [5] is on record as “inhibited MPA-induced or FGF2-induced cell proliferation”. For the same molecule, the “E2-induced proliferation of xenografts” value in the data set with MCF-7 xenografts is “inhibited”. Also, in data set [6] (same doses), the “efficacy compared with MIF” value is reported as “more efficacious than MIF”. For the same molecule, on glucocorticoid receptor, the antiglucocorticoid activity entry is reported as “antiglucocorticoid effects at higher concentrations”. Also, the “effect in cells treated with analogs of cyclic AMP” value at PR [7] (T47D cells transfected with MMTV-CAT) is on record as “still behaved as an antagonist”.
For the molecule `C[C@@H]1C[C@@H]2C(=C3CCC(=O)C=C31)[C@@H](c1ccc(N(C)C)cc1)C[C@@]1(C)[C@H]2CC[C@@]12CCCO2` [Org 31710], in [6] (p.o.), the “efficacy compared with MIF” value is “more effective than MIF”.
For `C[C@H]1CC2=CC(=O)CCC2=C2[C@@H]1[C@@H]1CC[C@@]3(CCCO3)[C@@]1(C)C[C@@H]2c1ccc(N(C)C)cc1` [Org 31806], the “efficacy compared with MIF” value in [6] (p.o.) was “more effective than MIF”.
As to `CCC(=O)[C@@]1(C)CC[C@H]2[C@@H]3CCC4=CC(=O)CCC4=C3CC[C@@]21C` [R5020], in the data set with T47D cells (MIF at micromolar concentrations), the “proliferation of T47D and MCF-7 cells” value is reported as “stimulate the proliferation”.
Take `CC/C(=C(\c1ccccc1)c1ccc(OCCN(C)C)cc1)c1ccccc1` [Tamoxifen, tamoxifen]: the E2-induced cell proliferation entry with MCF-7 cells is given as “inhibited E2-induced cell proliferation”; in the data set with T47D cells (clone 11, ER- and PR-positive) it was “specifically inhibit E2-induced cell proliferation”. For the same molecule, the tumor growth entry in the data set with HI-responsive tumors [1] (mouse, in vivo) is “tumor growth was inhibited”; in the data set on T61 human tumors it was “inhibits tumor growth”. Besides, in data set [8], the “number of cells as compared to the controls” value was “significant decrease in the number of cells”. Besides, in data set [6] (rat, in vivo), the “PR (and ER) expression” value was “increased PR expression”.
As for `CC#C[C@]1(O)CC[C@H]2[C@@H]3CCC4=CC(=O)CCC4=C3[C@@H](c3ccc(C(C)=O)cc3)C[C@@]21C` [ZK 112993], in the data set on T61 human tumors, the tumor growth entry is “significantly inhibits the growth”.
For `CC(=O)c1ccc([C@H]2C[C@@]3(C)[C@@H](CC[C@@]3(O)C(F)(F)C(F)(F)F)[C@@H]3CCC4=CC(=O)CCC4=C32)cc1` [ZK 230211, lonaprisan], in the data set on T47D cells (10 nM), the apoptosis entry is on record as “induces apoptosis”. In addition, the tumor regression entry in the data set with HI-responsive tumors [4] (daily doses of 10 mg/kg) is reported as “regress”; in the data set on HI-responsive tumors [4] (mouse, in vivo), “induced tumor regression”. Moreover, in the data set with HI-responsive tumors [4], the therapeutic effects result is “excellent therapeutic effects”. Further, in data set [5], the “MPA-induced or FGF2-induced cell proliferation” value was “inhibited MPA-induced or FGF2-induced cell proliferation”. The antiglucocorticoid activity result on glucocorticoid receptor is on record as “low antiglucocorticoid activity”. Also, the “effect on PKA-activated PR-B” value on PR [7] is “no effect on PKA-activated PR-B”. Moreover, the MPA-induced proliferative effect result in the data set with C4-HIR cells and with C4-HI cells was “abolished” in each case.
